Measured values: publication PMC5218480 (PLoS ONE, 2017)

Test system: MV-4-11 cells
Assay: Gene expression microarray analysis (Affymetrix PrimeView) and GSEA
Type: cell-based, human
Design: RFU PODN (11730768_x_at) / Fold change /veh PODN (11730768_x_at) / RFU LINC00158 (11744669_a_at) / Fold change /veh LINC00158 (11744669_a_at) / RFU DUSP10 (11751237_a_at) / Fold change /veh DUSP10 (11751237_a_at) / RFU ID3 (11757404_x_at) / Fold change /veh ID3 (11757404_x_at) / RFU PLEKHG5 (11737974_s_at) / Fold change /veh PLEKHG5 (11737974_s_at) / RFU LRRC4B (11730491_at) / Fold change /veh LRRC4B (11730491_at) / RFU GIMAP4 (11747438_a_at) / Fold change /veh GIMAP4 (11747438_a_at) / RFU KRT8 (11758183_x_at) / Fold change /veh KRT8 (11758183_x_at) / RFU CNN1 (11734310_a_at) / Fold change /veh CNN1 (11734310_a_at) / RFU VPS37D (11726825_at) / Fold change /veh VPS37D (11726825_at) / RFU C10orf10 (11716522_x_at) / Fold change /veh C10orf10 (11716522_x_at) / RFU KIR2DL2 /// KIR2DL4 /// KIR2DL5A /// KIR2DL5B /// KIR2DS1 /// KIR2DS2 /// KIR2DS3 /// KIR2DS4 /// KIR3DL3 /// KIR3DL3 /// KIR3DS1 (11738374_at) / Fold change /veh KIR2DL2 /// KIR2DL4 /// KIR2DL5A /// KIR2DL5B /// KIR2DS1 /// KIR2DS2 /// KIR2DS3 /// KIR2DS4 /// KIR3DL3 /// KIR3DL3 /// KIR3DS1 (11738374_at) / RFU C1QL1 (11718748_at) / Fold change /veh C1QL1 (11718748_at) / RFU TMPRSS4 (11747572_a_at) / Fold change /veh TMPRSS4 (11747572_a_at) / RFU HAMP (11756126_x_at) / Fold change /veh HAMP (11756126_x_at) / RFU RNFT2 (11725882_a_at) / Fold change /veh RNFT2 (11725882_a_at) / RFU NR4A2 (11747474_a_at) / Fold change /veh NR4A2 (11747474_a_at) / RFU ABCC12 (11746883_a_at) / Fold change /veh ABCC12 (11746883_a_at) / RFU TMEM136 (11760407_x_at) / Fold change /veh TMEM136 (11760407_x_at) / RFU CLDN22 /// WWC2 (11732394_at) / Fold change /veh CLDN22 /// WWC2 (11732394_at) / RFU HLA-DPB1 (11760878_x_at) / Fold change /veh HLA-DPB1 (11760878_x_at) / RFU SPINT1 (11716480_a_at) / Fold change /veh SPINT1 (11716480_a_at) / RFU GAP43 (11754022_s_at) / Fold change /veh GAP43 (11754022_s_at) / RFU A4GNT (11735810_at) / Fold change /veh A4GNT (11735810_at) / RFU PRB3 (11715151_x_at) / Fold change /veh PRB3 (11715151_x_at) / RFU TUBB4B (11761932_at) / Fold change /veh TUBB4B (11761932_at) / RFU CAPN14 (11732068_a_at) / Fold change /veh CAPN14 (11732068_a_at) / RFU TMCC2 (11721928_a_at) / Fold change /veh TMCC2 (11721928_a_at) / RFU IRGQ (11745062_a_at) / Fold change /veh IRGQ (11745062_a_at) / RFU FAM174B (11720279_a_at) / Fold change /veh FAM174B (11720279_a_at) / RFU TMPRSS4 (11748680_a_at) / Fold change /veh TMPRSS4 (11748680_a_at) / RFU FAM212B (11763350_a_at) / Fold change /veh FAM212B (11763350_a_at) / RFU PLEKHG5 (11743358_a_at) / Fold change /veh PLEKHG5 (11743358_a_at) / RFU ZSCAN30 (11745921_a_at) / Fold change /veh ZSCAN30 (11745921_a_at) / RFU CMKLR1 (11741424_a_at) / Fold change /veh CMKLR1 (11741424_a_at) / RFU LOC101060620 /// MAPK8IP1 (11723275_at) / Fold change /veh LOC101060620 /// MAPK8IP1 (11723275_at) / RFU SPTSSB (11747773_x_at) / Fold change /veh SPTSSB (11747773_x_at) / RFU PRSS12 (11739890_at) / Fold change /veh PRSS12 (11739890_at) / RFU BIN1 (11741810_x_at) / Fold change /veh BIN1 (11741810_x_at) / RFU WNT11 (11732464_a_at) / Fold change /veh WNT11 (11732464_a_at) / RFU C10orf10 (11716521_a_at) / Fold change /veh C10orf10 (11716521_a_at) / RFU C5orf56 (11738089_at) / Fold change /veh C5orf56 (11738089_at) / RFU CYB561 (11721691_x_at) / Fold change /veh CYB561 (11721691_x_at) / RFU ANKRD19P (11752326_a_at) / Fold change /veh ANKRD19P (11752326_a_at) / RFU OR2T12 /// OR2T33 /// OR2T8 (11738714_s_at) / Fold change /veh OR2T12 /// OR2T33 /// OR2T8 (11738714_s_at) / RFU VCAN (11748164_a_at) / Fold change /veh VCAN (11748164_a_at) / RFU JSRP1 (11732532_at) / Fold change /veh JSRP1 (11732532_at) / RFU KRTAP10-11 (11738290_x_at) / Fold change /veh KRTAP10-11 (11738290_x_at) / RFU MYO3A (11730013_a_at) / Fold change /veh MYO3A (11730013_a_at) / RFU EBF3 (11725865_a_at) / Fold change /veh EBF3 (11725865_a_at) / RFU CAMK2N1 (11719241_x_at) / Fold change /veh CAMK2N1 (11719241_x_at) / RFU C5orf56 (11738088_a_at) / Fold change /veh C5orf56 (11738088_a_at) / RFU OLFML3 (11715873_a_at) / Fold change /veh OLFML3 (11715873_a_at) / RFU LOC100653217 /// NTM (11731650_a_at) / Fold change /veh LOC100653217 /// NTM (11731650_a_at) / RFU MAPK11 (11762145_a_at) / Fold change /veh MAPK11 (11762145_a_at) / RFU FIZ1 (11724087_x_at) / Fold change /veh FIZ1 (11724087_x_at) / RFU OASL (11726364_x_at) / Fold change /veh OASL (11726364_x_at) / RFU SOX15 (11748057_x_at) / Fold change /veh SOX15 (11748057_x_at) / RFU CD79A (11719716_a_at) / Fold change /veh CD79A (11719716_a_at) / RFU HIST1H1D (11736915_at) / Fold change /veh HIST1H1D (11736915_at) / RFU CASKIN2 (11723855_a_at) / Fold change /veh CASKIN2 (11723855_a_at) / RFU LOC730098 (11760151_x_at) / Fold change /veh LOC730098 (11760151_x_at) / RFU OR4N2 (11742367_at) / Fold change /veh OR4N2 (11742367_at) / RFU PRRT2 (11749266_a_at) / Fold change /veh PRRT2 (11749266_a_at) / RFU SNX32 (11753110_a_at) / Fold change /veh SNX32 (11753110_a_at) / RFU CDHR5 (11726645_a_at) / Fold change /veh CDHR5 (11726645_a_at) / RFU RCAN1 (11760418_a_at) / Fold change /veh RCAN1 (11760418_a_at) / RFU FAM167A (11723789_a_at) / Fold change /veh FAM167A (11723789_a_at) / RFU FAM26E (11764081_at) / Fold change /veh FAM26E (11764081_at) / RFU ISYNA1 (11749810_s_at) / Fold change /veh ISYNA1 (11749810_s_at) / RFU ACY1 (11761880_at) / Fold change /veh ACY1 (11761880_at) / RFU 11764098_at / Fold change /veh 11764098_at / RFU SAMD14 (11745864_x_at) / Fold change /veh SAMD14 (11745864_x_at) / RFU NPB (11741838_a_at) / Fold change /veh NPB (11741838_a_at) / RFU TMPRSS6 (11731388_a_at) / Fold change /veh TMPRSS6 (11731388_a_at) / RFU KRTAP10-2 (11738614_at) / Fold change /veh KRTAP10-2 (11738614_at) / RFU ARHGAP8 /// PRR5-ARHGAP8 (11727945_x_at) / Fold change /veh ARHGAP8 /// PRR5-ARHGAP8 (11727945_x_at) / RFU KRTAP5-7 /// NADSYN1 (11734609_at) / Fold change /veh KRTAP5-7 /// NADSYN1 (11734609_at) / RFU RASL12 (11751679_a_at) / Fold change /veh RASL12 (11751679_a_at) / RFU CDKN2B (11736163_a_at) / Fold change /veh CDKN2B (11736163_a_at) / RFU PRF1 (11729649_at) / Fold change /veh PRF1 (11729649_at) / RFU, ZNF638 /// ZNF638-IT1 / Fold change vs veh, ZNF638 /// ZNF638-IT1 / RFU, PANK3 / Fold change vs veh, PANK3 / RFU, SH3YL1 / Fold change vs veh, SH3YL1 / RFU, ZEB2 / Fold change vs veh, ZEB2 / RFU, NRIP1 / Fold change vs veh, NRIP1 / RFU, PTTG1IP / Fold change vs veh, PTTG1IP / RFU, CAPN2 / Fold change vs veh, CAPN2 / RFU, MED14 / Fold change vs veh, MED14 / RFU, SNORA58 / Fold change vs veh, SNORA58 / RFU, C1orf63 / Fold change vs veh, C1orf63 / RFU, LRRFIP1 / Fold change vs veh, LRRFIP1 / RFU, NDUFAF7 / Fold change vs veh, NDUFAF7 / RFU, SLC12A2 / Fold change vs veh, SLC12A2 / RFU, IBTK / Fold change vs veh, IBTK / RFU, ESF1 / Fold change vs veh, ESF1 / Fold change vs veh, TMEM50B / RFU, TAOK1 / Fold change vs veh, TAOK1 / RFU, ACBD3 / Fold change vs veh, ACBD3 / RFU, TMA16 / Fold change vs veh, TMA16 / RFU, RWDD3 / Fold change vs veh, RWDD3 / RFU, BCAT1 / Fold change vs veh, BCAT1 / RFU, EDEM3 / Fold change vs veh, EDEM3 / RFU, TMEM33 / Fold change vs veh, TMEM33 / RFU, WDR75 / Fold change vs veh, WDR75 / RFU, AHCTF1 / Fold change vs veh, AHCTF1 / RFU, TFRC / Fold change vs veh, TFRC / RFU, ZDHHC17 / Fold change vs veh, ZDHHC17 / RFU, NOM1 / Fold change vs veh, NOM1 / RFU, ARL8B / Fold change vs veh, ARL8B / RFU, ZBTB11 / Fold change vs veh, ZBTB11 / RFU, TAMM41 / Fold change vs veh, TAMM41 / RFU, KIAA1704 /// LOC100996395 / Fold change vs veh, KIAA1704 /// LOC100996395 / RFU, ING1 / Fold change vs veh, ING1 / RFU, TRMT61B / Fold change vs veh, TRMT61B / RFU, FUBP3 / Fold change vs veh, FUBP3 / RFU, TP53 / Fold change vs veh, TP53 / RFU, TNKS2 / Fold change vs veh, TNKS2 / RFU, ZFP14 / Fold change vs veh, ZFP14 / RFU, ACTR2 / Fold change vs veh, ACTR2 / RFU, PPP3R1 / Fold change vs veh, PPP3R1 / RFU, PIK3R1 / Fold change vs veh, PIK3R1 / RFU, HNRNPA1 / Fold change vs veh, HNRNPA1 / RFU, RNF170 / Fold change vs veh, RNF170 / RFU, ZNF28 / Fold change vs veh, ZNF28 / RFU, RNGTT / Fold change vs veh, RNGTT / RFU, OGT / Fold change vs veh, OGT / RFU, BRD1 / Fold change vs veh, BRD1 / RFU, MARS / Fold change vs veh, MARS / RFU, ZNF655 / Fold change vs veh, ZNF655 / RFU, FAHD1 / Fold change vs veh, FAHD1 / RFU, BDP1 / Fold change vs veh, BDP1 / RFU, LRRCC1 / Fold change vs veh, LRRCC1 / RFU, ARID1A / Fold change vs veh, ARID1A / RFU, ZNF146 / Fold change vs veh, ZNF146 / RFU, ZNF330 / Fold change vs veh, ZNF330 / RFU, GPN3 / Fold change vs veh, GPN3 / RFU, C9orf123 / Fold change vs veh, C9orf123 / RFU, N4BP2L2 / Fold change vs veh, N4BP2L2 / RFU, ARFIP1 / Fold change vs veh, ARFIP1 / RFU, FAM179B / Fold change vs veh, FAM179B / RFU, BCL10 / Fold change vs veh, BCL10 / RFU, UHRF1BP1L / Fold change vs veh, UHRF1BP1L / RFU, BET1 / Fold change vs veh, BET1 / RFU, CNOT2 / Fold change vs veh, CNOT2 / RFU, ZNF268 / Fold change vs veh, ZNF268 / Fold change vs veh, ZNF507 / RFU, DGCR2 / Fold change vs veh, DGCR2 / RFU, WDSUB1 / Fold change vs veh, WDSUB1 / Fold change vs veh, HSP90B1 /// MIR3652 / RFU, ADSS / Fold change vs veh, ADSS / RFU, GK / Fold change vs veh, GK / RFU, ZNF148 / Fold change vs veh, ZNF148 / RFU, TAF9 / Fold change vs veh, TAF9 / RFU, SLC1A5 / Fold change vs veh, SLC1A5 / RFU, SLMO2 / Fold change vs veh, SLMO2 / RFU, ABCC4 / Fold change vs veh, ABCC4 / RFU, LOC101060439 /// RAP1B / Fold change vs veh, LOC101060439 /// RAP1B / RFU, RFX7 / Fold change vs veh, RFX7 / RFU, GTPBP10 / Fold change vs veh, GTPBP10 / RFU, CNEP1R1 / Fold change vs veh, CNEP1R1 / RFU, BIVM-ERCC5 /// ERCC5 / Fold change vs veh, BIVM-ERCC5 /// ERCC5 / RFU, ILF3 / Fold change vs veh, ILF3 / RFU 11762660_at / Fold change /veh 11762660_at / RFU VCAN (11757783_s_at) / Fold change /veh VCAN (11757783_s_at) / RFU DDX43 (11728927_at) / Fold change /veh DDX43 (11728927_at) / RFU KRT8 (11758188_x_at) / Fold change /veh KRT8 (11758188_x_at) / RFU NKD1 (11759106_at) / Fold change /veh NKD1 (11759106_at) / RFU SRD5A1 (11742802_a_at) / Fold change /veh SRD5A1 (11742802_a_at) / RFU TPSAB1 /// TPSB2 (11721975_s_at) / Fold change /veh TPSAB1 /// TPSB2 (11721975_s_at) / RFU GSTM3 (11746129_a_at) / Fold change /veh GSTM3 (11746129_a_at) / RFU IL23R (11737362_x_at) / Fold change /veh IL23R (11737362_x_at) / RFU TMEM51 (11727254_a_at) / Fold change /veh TMEM51 (11727254_a_at) / RFU PIWIL2 (11732686_x_at) / Fold change /veh PIWIL2 (11732686_x_at) / RFU ORM1 (11744905_x_at) / Fold change /veh ORM1 (11744905_x_at) / RFU CCDC152 (11743942_at) / Fold change /veh CCDC152 (11743942_at) / RFU ECM1 (11717891_a_at) / Fold change /veh ECM1 (11717891_a_at) / RFU IL23R (11748794_a_at) / Fold change /veh IL23R (11748794_a_at) / RFU TNFAIP8L3 (11732012_x_at) / Fold change /veh TNFAIP8L3 (11732012_x_at) / RFU MBOAT4 (11741988_at) / Fold change /veh MBOAT4 (11741988_at) / RFU 11764193_at / Fold change /veh 11764193_at / RFU TMEM53 (11763286_at) / Fold change /veh TMEM53 (11763286_at) / RFU MAGEB2 (11727129_at) / Fold change /veh MAGEB2 (11727129_at) / RFU TMEM200A (11744735_a_at) / Fold change /veh TMEM200A (11744735_a_at) / RFU CCDC152 (11751479_a_at) / Fold change /veh CCDC152 (11751479_a_at) / RFU FAM211A (11726209_a_at) / Fold change /veh FAM211A (11726209_a_at) / RFU RGS16 (11746705_a_at) / Fold change /veh RGS16 (11746705_a_at) / RFU VCAN (11755009_s_at) / Fold change /veh VCAN (11755009_s_at) / RFU RHOB (11743442_s_at) / Fold change /veh RHOB (11743442_s_at) / RFU RGS16 (11720943_a_at) / Fold change /veh RGS16 (11720943_a_at) / RFU RGS16 (11720944_at) / Fold change /veh RGS16 (11720944_at) / RFU, VPS4B / Fold change vs veh, VPS4B / RFU, CREB1 / Fold change vs veh, CREB1 / RFU, DNAJC13 / Fold change vs veh, DNAJC13 / RFU, GNAQ / Fold change vs veh, GNAQ / RFU, CDK5R1 / Fold change vs veh, CDK5R1 / RFU, ZRANB3 / Fold change vs veh, ZRANB3 / RFU, CUL4A / Fold change vs veh, CUL4A / RFU, CCNY / Fold change vs veh, CCNY / RFU, UFL1 / Fold change vs veh, UFL1 / RFU, COG3 / Fold change vs veh, COG3 / RFU, DIAPH2 / Fold change vs veh, DIAPH2 / RFU, SKA2 / Fold change vs veh, SKA2 / RFU, AFF3 / Fold change vs veh, AFF3 / RFU, LMF1 / Fold change vs veh, LMF1 / RFU, IPO11 / Fold change vs veh, IPO11 / RFU, DFFB / Fold change vs veh, DFFB / RFU, FOXP1 / Fold change vs veh, FOXP1 / RFU, CARD8 / Fold change vs veh, CARD8 / RFU, STRN3 / Fold change vs veh, STRN3 / RFU, ADK / Fold change vs veh, ADK / RFU, RASSF2 / Fold change vs veh, RASSF2 / RFU, WIPF1 / Fold change vs veh, WIPF1 / RFU, LARP1B / Fold change vs veh, LARP1B / RFU, RASA1 / Fold change vs veh, RASA1 / RFU, RB1 / Fold change vs veh, RB1 / RFU, PPFIA1 / Fold change vs veh, PPFIA1 / RFU, MAT2A / Fold change vs veh, MAT2A / RFU, CCT5 / Fold change vs veh, CCT5 / RFU, WDR92 / Fold change vs veh, WDR92 / RFU, CUX1 / Fold change vs veh, CUX1 / RFU, TTC7A / Fold change vs veh, TTC7A / RFU, TMEM135 / Fold change vs veh, TMEM135 / RFU, DEPTOR / Fold change vs veh, DEPTOR / RFU, CPM / Fold change vs veh, CPM / RFU, DNAJB6 / Fold change vs veh, DNAJB6 / RFU, CACNA2D3 / Fold change vs veh, CACNA2D3 / RFU, DTX4 / Fold change vs veh, DTX4 / RFU, TFCP2 / Fold change vs veh, TFCP2 / RFU, GMCL1 /// GMCL1P1 / Fold change vs veh, GMCL1 /// GMCL1P1 / RFU, AEBP2 / Fold change vs veh, AEBP2 / RFU, SNHG1 /// SNORD22 /// SNORD25 /// SNORD26 /// SNORD27 /// SNORD28 /// SNORD29 /// SNORD31 / Fold change vs veh, SNHG1 /// SNORD22 /// SNORD25 /// SNORD26 /// SNORD27 /// SNORD28 /// SNORD29 /// SNORD31 / Fold change (Aza/veh), C12orf56 (ProbeSet 11735607_a_at) / Fold change (ACY-1035/veh), C12orf56 (ProbeSet 11735607_a_at) / Fold change (Aza/veh), FGFR1OP (ProbeSet 11751329_s_at) / Fold change (ACY-1035/veh), FGFR1OP (ProbeSet 11751329_s_at) / Fold change (Aza/veh), VPS36 (ProbeSet 11739960_a_at) / Fold change (ACY-1035/veh), VPS36 (ProbeSet 11739960_a_at) / RFU SYPL1 (11715823_x_at) / Fold change /veh SYPL1 (11715823_x_at) / RFU IGFBP7 (11715501_s_at) / Fold change /veh IGFBP7 (11715501_s_at) / RFU REEP3 (11722064_at) / Fold change /veh REEP3 (11722064_at) / RFU IGLL1 (11728026_x_at) / Fold change /veh IGLL1 (11728026_x_at): dose or concentration left out as unconfirmed
Conditions: ProbeSet 11764057_s_at; LIST B

Nc1ncn([C@@H]2O[C@H](CO)[C@@H](O)[C@H]2O)c(=O)n1 [azacitidine]
Fold change vs veh, C1orf63: 1.09
